# Measured values reported in PubChem BioAssay AID686967 (The Scripps Research Institute Molecular Screening Center, 2013).
# Active and inactive are the calls of the source. How the calls were made is not given here.
# Molecular target: methionyl-tRNA synthetase (Trypanosoma brucei brucei)
# Assay: inhibition of trypanosome methionyl-tRNA synthetase – biochemical, luminescence, dose response, late-stage follow-up (AID 686967)
# Settings: recombinant T. brucei MetRS, luminescence (ATP depletion)
row,IC50,SMILES
1,inactive,CCO[C@@H]1OC(C(=O)NCc2nc3ccccc3[nH]2)=C[C@H](c2ccc(Br)cc2)[C@H]1CCCO
2,0.949 µM,CC(CC(=O)Nc1cccc(Br)c1)=NNC(=O)c1ccc(O)cc1O
3,0.429 µM,Oc1c(Cl)cc(Cl)cc1CNc1nc2ccccc2[nH]1
4,1.3 µM,O=C(Cn1cnc2ccccc21)Nc1cccc([N+](=O)[O-])c1
5,2.83 µM,CC(C)(C)[C@H]1C=C(C(=O)NCc2nc3ccccc3[nH]2)O[C@@H](OCc2ccc(CO)cc2)C1
6,0.604 µM,Clc1ccc(-c2nnc(SCc3nc4ccccc4[nH]3)o2)c(Cl)c1
7,0.338 µM,CN1CC(=O)N2C(c3cccc([N+](=O)[O-])c3)c3[nH]c4ccccc4c3C[C@H]2C1=O (some centres undefined)
8,1.58 µM,O=C(NCc1nc2ccccc2[nH]1)C1=C[C@H](c2ccc(Br)cc2)C[C@H](OCCCCO)O1
9,3.47 µM,Cc1ccc(NC(=O)CN(C)C(=O)CCSc2ccc(F)cc2)cc1
10,2.4 µM,O=C(NCc1nc2ccccc2[nH]1)C1=C[C@H](c2ccc(Br)cc2)C[C@H](OCc2ccc(CO)cc2)O1
11,2.22 µM,O=C(CN1CCSC1=NCc1ccccc1)c1ccc(Cl)c(Cl)c1
12,6.5 µM,O=C(NCc1nc2ccccc2[nH]1)C1=C[C@H](C2CC2)C[C@H](OCc2ccc(CO)cc2)O1
13,0.6 µM,COc1ccccc1NS(=O)(=O)c1cccc(NC(=O)Nc2ccccc2)c1
14,0.641 µM,CC(C)OCCCN1CC(=O)N2C(c3cccc([N+](=O)[O-])c3)c3[nH]c4ccccc4c3C[C@H]2C1=O (some centres undefined)
15,2.41 µM,Brc1cnc2nc(SCc3nc4ccccc4[nH]3)[nH]c2c1
16,6.25 µM,CCO[C@H]1OC(C(=O)NCc2nc3ccccc3[nH]2)=C[C@@H](c2ccc(Br)cc2)[C@@H]1CCCO
17,1.08 µM,O=C(CC=NOCc1ccc([N+](=O)[O-])cc1)Nc1ccc(Cl)cc1

# Second part, the compound before the results:
row,SMILES,IC50
1,O=C(NNC(=O)c1cc(-c2ccc(Cl)c(Cl)c2)nc2ccccc12)Nc1ccccc1,1.2 µM
2,O=C1CC(SCc2nc3ccccc3[nH]2)C(=O)N1c1cccc(Cl)c1 (centres undefined),inactive
3,COc1ccc2[nH]c3nc(SCC(=O)Nc4ccc5c(c4)OCO5)nnc3c2c1,0.603 µM
4,O=C(NCc1nc2ccccc2[nH]1)C1=C[C@@H](c2ccc(Br)cc2)C[C@@H](OCCCCO)O1,0.674 µM
5,O=C(NNC(=O)c1ccc(-n2cncn2)c([N+](=O)[O-])c1)c1ccc(Cl)cc1,2.85 µM
6,CCCCCCCCCC1NC(C(=O)O)Cc2c1[nH]c1ccccc21 (centres undefined),4.11 µM
7,COc1cccc(NC(=O)CSc2nnc3c(n2)[nH]c2ccc(C)cc23)c1,0.0441 µM
8,O=C(CC(=O)Nc1cccc(Cl)c1)NN=Cc1ccccc1,3.07 µM
9,COc1ccc(OCC(O)CNC(=O)Nc2ccc(Cl)cc2)cc1 (centres undefined),5.54 µM
10,O=C(Cn1cc(C(=O)C(=O)N2CCOCC2)c2ccccc21)Nc1cccc(C(F)(F)F)c1,0.172 µM
11,O=C(NCc1nc2ccccc2[nH]1)C1=C[C@@H](C2CC2)C[C@@H](OCc2ccc(CO)cc2)O1,1.5 µM
12,O=C(CCC(=O)Nc1cccc([N+](=O)[O-])c1)NN=Cc1cccs1,3.56 µM
13,O=C(N/C(=C\c1cccnc1)c1nc2ccccc2[nH]1)c1cccc(Br)c1,3.2 µM
14,CC(C)(C)[C@@H]1C=C(C(=O)NCc2nc3ccccc3[nH]2)O[C@H](OCc2ccc(CO)cc2)C1,3.39 µM
15,O=C(C[C@H]1C(=O)N(Cc2ccccc2)C[C@@H]1c1ccc(Br)cc1)Nc1ccc(Br)cc1,1.95 µM
16,O=C(NCc1nc2ccccc2[nH]1)C1=C[C@@H](c2csc3ccccc23)C[C@@H](OCCCCO)O1,2.33 µM
17,O=C(NCCc1nc2ccccc2[nH]1)c1ccc(Cl)c([N+](=O)[O-])c1,0.147 µM
18,O=C(Nc1ccc(F)c(Cl)c1)C1CC(=O)n2c(nc3ccccc32)N1 (centres undefined),1.59 µM
19,O=C(NCc1nc2ccccc2[nH]1)C1=C[C@H](c2csc3ccccc23)C[C@H](OCCCCO)O1,0.739 µM

row,SMILES,IC50
1,O=C(CC=NOCc1ccc([N+](=O)[O-])cc1)Nc1ccc(Br)cc1,1.43 µM
2,Clc1ccc(OCCSCc2nc3ccccc3[nH]2)cc1,7.54 µM
3,O=C(NCc1nc2ccccc2[nH]1)C1=C[C@H](c2ccccc2)C[C@H](OCc2ccc(CO)cc2)O1,6.86 µM
4,O=C(NCc1nc2ccccc2[nH]1)C1=C[C@@H](c2ccc(Br)cc2)C[C@@H](OCc2ccc(CO)cc2)O1,1.06 µM
5,COc1ccc(CNC(=O)CSc2nnc3c(n2)[nH]c2ccc(F)cc23)cc1,0.755 µM
6,CN(CC(=O)Nc1ccc(Cl)cc1)C(=O)c1ccc(-n2cncn2)c([N+](=O)[O-])c1,0.845 µM
7,O=C1CC(N(CCc2ccccc2)C(=S)Nc2ccccc2)C(=O)N1c1ccc(Br)cc1 (centres undefined),0.438 µM
8,C[C@H](O)[C@@H]1C(=O)N2CCc3c([nH]c4ccccc34)[C@@H]2C[C@@H]1N(C)Cc1ccc2c(c1)OCO2,0.297 µM
9,O=C1[C@@H]2Cc3c([nH]c4ccccc34)C(c3cccc([N+](=O)[O-])c3)N2C(=O)CN1CCCO (some centres undefined),0.474 µM
10,CC(=O)c1ccc(N2CCN(C(=O)CCCn3c(=O)[nH]c4ccc(Br)cc4c3=O)CC2)cc1,0.577 µM
11,O=C(NCc1nc2ccccc2[nH]1)C1=C[C@@H](c2ccc3c(c2)OCO3)C[C@@H](OCCCCO)O1,1.1 µM
12,CCOC(=O)N1CCC(Nc2c(Nc3ccc(F)cc3)c(=O)c2=O)CC1,6.35 µM
13,CN(Cc1cc(Cl)cc(Cl)c1)[C@H]1C[C@H]2c3[nH]c4ccccc4c3CCN2C(=O)[C@H]1CO,0.586 µM
14,O=C(NCc1nc2ccccc2[nH]1)C1=C[C@@H](c2ccccc2)C[C@@H](OCc2ccc(CO)cc2)O1,1.58 µM
15,COc1ccccc1-n1c(SCC(=O)Nc2ccc(Cl)cc2)nc(O)c(Cc2ccccc2)c1=O,3.81 µM
16,Cc1[nH]c2ccc(Br)cc2c(=O)c1CN1CCCCCC1,4.21 µM
17,O=C(NCc1nc2ccccc2[nH]1)C1=C[C@H](c2ccc3c(c2)OCO3)C[C@H](OCCCCO)O1,3.04 µM
18,CC(=O)c1c[nH]c(C(=O)NCc2cccc(C(F)(F)F)c2)c1,1.04 µM
